This is an account of results in ChEMBL document CHEMBL4418496, “Inhibitors of crl4 ubiquitin ligase and uses thereof” (2014).

Structures are written as SMILES. Active and inactive are the calls of the source. The calls are words filed in the database; no cut-off is given here. Where a SMILES comes first, the peptide text is derived from it. The star is where a group is joined. Cbz = O=C(OCc1ccccc1)*

Assay [1] deals with Cullin-4A (Mus musculus) (UniProt Q3TCH7). As to the kind of experiment: Inhibition of CUL4A in mouse MEF cells stably expressing FL FLAG-tagged DDB2 assessed as reduction in F-DDB2 degradation incubated for 2 hrs before irradiated with 10 J/m2 UV irradiation. In kind it is cell-based.
Cullin-4A (Mus musculus), sequence (Q3TCH7 whole entry): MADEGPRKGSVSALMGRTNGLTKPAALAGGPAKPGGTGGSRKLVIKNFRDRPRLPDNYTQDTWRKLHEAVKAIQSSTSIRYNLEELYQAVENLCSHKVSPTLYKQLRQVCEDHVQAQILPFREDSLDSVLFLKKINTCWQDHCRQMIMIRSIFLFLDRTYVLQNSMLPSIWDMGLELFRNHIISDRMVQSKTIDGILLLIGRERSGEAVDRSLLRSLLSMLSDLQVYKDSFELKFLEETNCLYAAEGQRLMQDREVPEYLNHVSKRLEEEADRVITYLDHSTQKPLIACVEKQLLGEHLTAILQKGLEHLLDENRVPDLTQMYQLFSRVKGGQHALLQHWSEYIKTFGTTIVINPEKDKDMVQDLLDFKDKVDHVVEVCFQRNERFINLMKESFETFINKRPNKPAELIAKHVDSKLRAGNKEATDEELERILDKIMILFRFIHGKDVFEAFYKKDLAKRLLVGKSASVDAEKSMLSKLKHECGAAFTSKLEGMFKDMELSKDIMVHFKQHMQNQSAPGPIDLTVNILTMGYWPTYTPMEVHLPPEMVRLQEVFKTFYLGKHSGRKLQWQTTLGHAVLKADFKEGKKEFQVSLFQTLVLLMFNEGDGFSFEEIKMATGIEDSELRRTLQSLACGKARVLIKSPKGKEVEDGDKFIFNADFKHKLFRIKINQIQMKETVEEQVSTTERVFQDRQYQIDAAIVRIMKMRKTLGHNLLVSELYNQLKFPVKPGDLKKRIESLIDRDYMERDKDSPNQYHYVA
Assay [2] has as its target Cullin-1 (Homo sapiens) (UniProt Q13616). In words: Inhibition of CUL1 in human U20S cells assessed as reduction in TNF-alpha-induced IkappaB-alpha degradation at 50 uM incubated for 2 hrs followed by TNFalpha stimulation for 15 mins by Western blotting analysis. In kind it is cell-based.
Assay [3] deals with Cullin-4B (Homo sapiens) (UniProt Q13620). In words: Inhibition of CUL4B in human MCF7 cells assessed as reduction in 3-methylcholanthrene-induced androgen receptor degradation at 50 uM. In kind it is cell-based.
Cullin-4B (Homo sapiens), sequence (Q13620 whole entry): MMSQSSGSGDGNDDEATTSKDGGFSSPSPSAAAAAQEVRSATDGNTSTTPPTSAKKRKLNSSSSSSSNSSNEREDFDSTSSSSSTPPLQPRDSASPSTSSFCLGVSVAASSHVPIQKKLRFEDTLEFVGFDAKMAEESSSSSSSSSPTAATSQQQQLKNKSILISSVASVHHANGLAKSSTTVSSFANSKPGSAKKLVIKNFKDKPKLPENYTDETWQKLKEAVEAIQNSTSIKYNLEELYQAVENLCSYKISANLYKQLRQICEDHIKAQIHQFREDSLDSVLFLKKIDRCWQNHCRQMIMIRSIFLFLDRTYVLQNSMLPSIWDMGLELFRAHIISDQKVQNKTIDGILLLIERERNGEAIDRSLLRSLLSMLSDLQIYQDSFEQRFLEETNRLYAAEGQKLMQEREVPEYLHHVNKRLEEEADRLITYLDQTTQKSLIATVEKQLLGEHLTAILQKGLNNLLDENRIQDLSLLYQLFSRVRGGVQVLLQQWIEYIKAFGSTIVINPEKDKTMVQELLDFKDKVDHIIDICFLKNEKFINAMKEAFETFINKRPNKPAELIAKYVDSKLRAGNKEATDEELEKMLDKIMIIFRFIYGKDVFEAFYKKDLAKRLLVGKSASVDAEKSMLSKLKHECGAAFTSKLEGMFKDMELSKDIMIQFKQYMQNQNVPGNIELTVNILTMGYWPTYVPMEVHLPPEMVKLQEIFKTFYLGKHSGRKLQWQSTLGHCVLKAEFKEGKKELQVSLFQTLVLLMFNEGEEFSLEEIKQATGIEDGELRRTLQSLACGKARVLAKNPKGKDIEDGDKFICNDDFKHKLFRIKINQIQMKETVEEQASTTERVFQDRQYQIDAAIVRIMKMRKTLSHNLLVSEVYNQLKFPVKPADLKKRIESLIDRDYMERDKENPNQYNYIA
The target of assay [4] is T1, Cullin-4A (Homo sapiens, UniProt Q13619). As to the kind of experiment: Inhibition of GST-tagged CUL4A/Rbxl ubiquitin ligase activity (unknown origin) assessed as reduction in reconstituted DDB1 ubiquitination in presence of ubiquitin, El, E2 and DDB1 incubated for 1 hr by Western blotting analysis.
T1 sequence (Q13619 whole entry): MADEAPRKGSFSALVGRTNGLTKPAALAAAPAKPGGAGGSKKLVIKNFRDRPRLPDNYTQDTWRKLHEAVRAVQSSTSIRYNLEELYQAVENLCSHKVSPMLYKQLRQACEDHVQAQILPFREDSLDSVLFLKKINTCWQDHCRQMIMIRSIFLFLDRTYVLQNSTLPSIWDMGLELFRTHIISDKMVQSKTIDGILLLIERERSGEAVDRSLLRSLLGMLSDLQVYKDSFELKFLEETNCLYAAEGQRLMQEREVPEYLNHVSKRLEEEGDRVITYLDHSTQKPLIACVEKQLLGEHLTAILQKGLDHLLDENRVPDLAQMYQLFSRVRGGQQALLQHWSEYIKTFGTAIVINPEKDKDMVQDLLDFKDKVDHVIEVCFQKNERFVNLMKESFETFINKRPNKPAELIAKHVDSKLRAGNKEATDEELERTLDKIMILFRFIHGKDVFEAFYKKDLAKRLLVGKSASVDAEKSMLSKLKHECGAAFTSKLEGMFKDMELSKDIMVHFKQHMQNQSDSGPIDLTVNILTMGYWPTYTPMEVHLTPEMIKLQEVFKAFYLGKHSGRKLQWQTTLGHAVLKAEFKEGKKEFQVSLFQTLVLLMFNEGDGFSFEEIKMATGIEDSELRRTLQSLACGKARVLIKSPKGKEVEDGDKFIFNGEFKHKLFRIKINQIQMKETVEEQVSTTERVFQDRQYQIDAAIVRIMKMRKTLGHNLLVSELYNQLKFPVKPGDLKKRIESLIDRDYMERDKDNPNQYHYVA
Assay [5] addresses Cullin-4A (Mus musculus) (UniProt Q3TCH7). In words: Inhibition of CUL4A in mouse MEF cells stably expressing FL FLAG-tagged DDB2 assessed as reduction in F-DDB2 degradation incubated for 2 hrs before irradiated with 10 J/m2 UV irradiation relative to control. Format: cell-based.
For assay [6], the target named is T1, Cullin-4A. As to the kind of experiment: Inhibition of CUL4A in human HCT116 cells assessed as promotion of UV-damaged DNA repair by measuring enhancement of 6,4-photoproducts removal pre-incubated for 2 hrs before UV-irradiation by ELISA. Format: cell-based.
Assay [7] concerns Proteasome. As to the kind of experiment: Inhibition of proteasome in mouse MEF cells stably expressing FL FLAG-tagged DDB2 assessed as reduction in F-DDB2 degradation incubated for 2 hrs before irradiated with 10 J/m2 UV irradiation.

Cullin-1 (Homo sapiens), sequence (Q13616 whole entry): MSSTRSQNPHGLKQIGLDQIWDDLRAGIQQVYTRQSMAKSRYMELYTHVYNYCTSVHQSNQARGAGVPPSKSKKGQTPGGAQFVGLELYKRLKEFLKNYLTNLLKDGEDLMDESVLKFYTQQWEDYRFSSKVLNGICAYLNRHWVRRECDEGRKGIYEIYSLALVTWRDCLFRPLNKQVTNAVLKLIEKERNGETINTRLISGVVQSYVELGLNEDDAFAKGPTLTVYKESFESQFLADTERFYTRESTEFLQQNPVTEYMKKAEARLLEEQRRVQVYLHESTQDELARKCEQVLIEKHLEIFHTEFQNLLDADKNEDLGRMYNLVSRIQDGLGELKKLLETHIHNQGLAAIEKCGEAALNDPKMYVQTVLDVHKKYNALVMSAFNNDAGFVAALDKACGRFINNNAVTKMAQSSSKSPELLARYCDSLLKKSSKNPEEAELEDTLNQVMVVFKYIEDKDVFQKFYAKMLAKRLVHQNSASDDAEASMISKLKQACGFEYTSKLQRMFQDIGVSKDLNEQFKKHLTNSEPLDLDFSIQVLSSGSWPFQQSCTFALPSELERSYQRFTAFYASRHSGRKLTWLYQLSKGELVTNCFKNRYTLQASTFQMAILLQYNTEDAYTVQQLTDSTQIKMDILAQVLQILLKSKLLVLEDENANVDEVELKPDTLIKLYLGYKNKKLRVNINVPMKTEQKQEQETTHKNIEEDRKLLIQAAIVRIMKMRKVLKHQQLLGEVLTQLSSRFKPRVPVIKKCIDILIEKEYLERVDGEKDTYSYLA

Turning to `N#CC1=C(N)SC(N)=C(C#N)C1c1ccco1`, in assay [1], the “inhibition (active/inactive call)” value was “Active”. For the same compound, the inhibition entry in assay [2] and in assay [3] was “inactive” in each case.
Consider `N#Cc1c(-c2ccco2)c2c([nH]c1=S)CCCC2`, for which, in assay [4], the IC50 was found to be 0.554 µM.
On the same count and under the same terms, to `N#CC1=C(N)SC(N)=C(C#N)C1c1cc(Br)ccc1F` belongs 690 µM.
Take `COc1ccc(-c2nnc(S)n2-c2ccc(C)cc2)cc1`: the IC50 in assay [4] amounted to 2.4 µM. For the same compound, the “inhibition (active/inactive call)” value in assay [1] was “Active”. The inhibition result in assay [3] is “inactive”.
With `COc1ccc(-c2c3c([nH]c(=S)c2C#N)CCC3)cc1`, the IC50 in assay [4] turned out to be 0.997 µM.
`CCOC(=O)Oc1c(Cl)cc2oc(=O)sc2c1Cl`: the “inhibition (active/inactive call)” value in assay [1] was “Active”.
The same measure, in the same setting: as for `CC1(C)Cc2c(c(N3CCNCC3)[nH]c(=S)c2C#N)CO1`, the entry is “Active”; as for `CCOC(=O)Oc1cc2oc(=O)sc2cc1Cl`, “Active”.
Consider `N#Cc1c(S)nc2c(c1-c1ccco1)CCCC2`, for which, in assay [1], the “inhibition (active/inactive call)” value was “Active”. Further, the inhibition result in assay [5] was “Dose-dependent effect”. The inhibition entry in assay [2] and in assay [3] was “inactive” throughout. The inhibition entry in assay [6] was “Active”.
As to `COC(=O)Oc1cc2oc(=O)sc2cc1Cl`, in assay [1], the “inhibition (active/inactive call)” value was “Active”.
Still for that read-out and setting: to `CC(=O)CN1C(=O)C(=O)c2cc(Br)ccc21` belongs “Active”.
For the compound `COc1ccc(-c2c(C#N)c(S)nc3c2CCC3)cc1`, the “inhibition (active/inactive call)” value in assay [1] is “Active”. The inhibition entry in assay [2] and in assay [3] was “inactive” in each case.
For `COc1nsc(I)c1C#N`, the “inhibition (active/inactive call)” value in assay [1] is “Active”. Moreover, the inhibition result in assay [3] is “inactive”.
Take `CCOC(=O)Oc1cc2oc(=O)sc2cc1Br`: in assay [1], the “inhibition (active/inactive call)” value was “Active”.
For the compound `N#CC1=C(N)SC(N)=C(C#N)C1CCc1ccccc1`, the IC50 in assay [4] came to 3.68 µM.
With `CC(C)C[C@@H](C=O)NC(=O)[C@H](CC(C)C)NC(=O)[C@H](CC(C)C)NC(=O)OCc1ccccc1` (Cbz-Leu-Leu-Leu-aldehyde), the inhibition result in assay [7] was “Active”.
As to `COC(=O)Oc1c(Br)c(C)c2oc(=O)sc2c1Br`, the IC50 in assay [4] is under 0.24 µM.
Turning to `O=[N+]([O-])c1c(Cl)ncnc1N1CCCCC1CO` (stereo not drawn), the “inhibition (active/inactive call)” value in assay [1] was “Active”.
Take `N#CC1=C(N)SC(N)=C(C#N)C1c1cccs1`: the “inhibition (active/inactive call)” value in assay [1] is “Active”. Also, the inhibition entry in assay [2] and in assay [3] was “inactive” throughout.
Take `N#CC1=C(N)SC(N)=C(C#N)C1c1ccc(C(F)(F)F)cc1`: in assay [4], the IC50 was over 50 µM.
For the compound `CC(C)c1nnc(S)n1-c1ccc(Cl)c(Cl)c1`, the IC50 in assay [4] is under 0.24 µM. For the same compound, the “inhibition (active/inactive call)” value in assay [1] was “Active”. Further, the inhibition result in assay [3] was “inactive”.
With `COC(=O)c1sc(=S)n(-c2ccc(F)cc2F)c1N`, in assay [1], the “inhibition (active/inactive call)” value is “Active”.
Consider `COc1ccc(-c2c3c([nH]c(=S)c2C#N)CCCC3)cc1`, for which the “inhibition (active/inactive call)” value in assay [1] is “Active”. Besides, the inhibition entry in assay [2] and in assay [3] was “inactive” each time.
Regarding `N#Cc1c(-c2ccncc2)c2c([nH]c1=S)CCCC2`, in assay [4], the IC50 is 2.68 µM.
As for `O=c1oc2c(Br)c(O)c(Br)cc2s1`, the “inhibition (active/inactive call)” value in assay [1] is “Active”. Further, the inhibition result in assay [3] is “inactive”.
`CNC(=O)Oc1c(Br)cc2sc(=O)oc2c1Br`: the IC50 in assay [4] is under 0.24 µM.
As for `Clc1ccc2nc(Cl)c3nnnn3c2c1`, in assay [1], the “inhibition (active/inactive call)” value is “Active”.
For `Sc1nnc(C2CC2)n1-c1ccc(Cl)c(Cl)c1`, the IC50 in assay [4] turned out to be 703 µM. Further, the “inhibition (active/inactive call)” value in assay [1] is “Active”. Besides, the inhibition result in assay [3] was “inactive”.
Turning to `N#CC1=C(N)SC(N)=C(C#N)C1c1ccccc1F`, the “inhibition (active/inactive call)” value in assay [1] is “Active”. Also, the inhibition result in assay [5] is “Dose-dependent effect”. Moreover, the inhibition entry in assay [2] and in assay [3] was “inactive” in each case. Also, the inhibition result in assay [6] was “Active”.
